The values below come from US10774068B2, “Composition and methods for inhibiting mammalian sterile 20-like kinase 1” (The Scripps Research Institute, priority 2015, dated 2020).

A word on the IC50: it is the midpoint of a concentration-inhibition curve.

Read-outs that look alike come from different tables or passages of the source.

Test [1] addresses T1, MST1 (Homo sapiens (Human), UniProt Q13043). Kind of test: MST1 biochemical LanthaScreen Eu Kinase Binding Assay. As to the method:
(§1) MST1 and MST2 biochemical LanthaScreen Eu Kinase Binding Assay was based on the binding and displacement of kinase tracer to the kinase of interest. Compounds in 1000×DMSO stock solution was dispensed using automated dispensing system (Labcyte) to 384 well Corning Microplate at 15 nL, 5 uL of Kinase buffer A was added to each well. Plates were shaken and incubated for 1 min to ensure well dissolution of compounds.
In general terms: TR-FRET usually uses a lanthanide donor and a delayed reading to cut background.

In a further test the target is MST2 (Homo sapiens (Human), UniProt Q13188). Kind of test: MST2 biochemical LanthaScreen Eu Kinase Binding Assay. As to the method: as §1
The next test relates to Beta cell. Put plainly: Beta cell apoptosis with increasing concentrations of neratinib (FIG. 3). In kind it is cell-based.
The subject of test [2] is human islets. Kind of test: Cytokine (IL-1β and IFN-γ) induced apoptotic activity in human islets. In kind it is cell-based. The settings on record: FIG. 9.
For test [3], the target named is T1, MST1. Put plainly: MST1 kinase activity. The format is biochemical.
The subject of test [4] is human islets. Kind of test: High glucose/palmitate induced apoptotic activity in human islets. Set-up: MST1 phosphorylation (pMST1): dose or concentration left out as unconfirmed. The settings on record: HG/Pal, FIG. 8.
Source text: Freshly isolated human islets from a single donor were exposed to high glucose and palmitate (HG/Pal) to induce apoptosis.
The next test has as its system T1D model mice. Put plainly: T1D model mice treated with streptozotocin (STZ). The format is in vivo.
Where [5] appears, read: read-out: Kinase Binding assay-MST1 IC50.
[6] abbreviates: read-out: Kinase Binding assay-MST2 IC50.

T1 sequence (Q13043 whole entry): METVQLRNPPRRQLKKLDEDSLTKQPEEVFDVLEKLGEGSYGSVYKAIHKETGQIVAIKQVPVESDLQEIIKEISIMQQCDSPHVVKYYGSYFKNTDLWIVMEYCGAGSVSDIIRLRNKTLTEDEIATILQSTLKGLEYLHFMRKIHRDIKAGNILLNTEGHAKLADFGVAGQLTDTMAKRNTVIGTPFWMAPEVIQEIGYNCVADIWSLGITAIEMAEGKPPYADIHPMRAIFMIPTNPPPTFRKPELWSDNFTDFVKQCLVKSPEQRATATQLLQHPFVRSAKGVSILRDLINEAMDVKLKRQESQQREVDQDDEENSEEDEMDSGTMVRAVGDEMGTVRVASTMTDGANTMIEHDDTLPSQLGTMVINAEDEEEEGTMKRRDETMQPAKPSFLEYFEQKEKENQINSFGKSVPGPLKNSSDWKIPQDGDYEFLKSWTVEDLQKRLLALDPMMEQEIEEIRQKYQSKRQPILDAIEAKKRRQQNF
MST2, sequence (Q13188 whole entry): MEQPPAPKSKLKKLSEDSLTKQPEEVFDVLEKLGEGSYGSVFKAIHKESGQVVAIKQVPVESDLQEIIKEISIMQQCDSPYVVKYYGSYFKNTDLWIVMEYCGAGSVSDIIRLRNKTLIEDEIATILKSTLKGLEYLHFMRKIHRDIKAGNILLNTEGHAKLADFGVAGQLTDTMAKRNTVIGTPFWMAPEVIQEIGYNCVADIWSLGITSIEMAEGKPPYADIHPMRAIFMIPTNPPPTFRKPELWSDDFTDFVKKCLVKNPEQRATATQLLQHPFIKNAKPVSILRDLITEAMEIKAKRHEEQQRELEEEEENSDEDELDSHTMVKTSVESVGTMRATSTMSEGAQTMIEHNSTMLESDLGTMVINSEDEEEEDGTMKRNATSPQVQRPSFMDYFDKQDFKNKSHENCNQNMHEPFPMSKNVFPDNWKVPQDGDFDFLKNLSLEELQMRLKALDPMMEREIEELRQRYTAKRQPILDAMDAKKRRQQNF

Turning to `CCOc1cc2ncc(C#N)c(Nc3ccc(OCc4ccn(C)n4)c(Cl)c3)c2cc1NC(=O)CCCN(C)C` [Example 67], the concentration for half-maximal inhibition (IC50) on MST1 [1] (setting [5]) and on MST2 was 100 to 1000 nM each time.

As for `CCOc1cc2ncc(C#N)c(Nc3ccc(OCc4ncccc4C)c(OC)c3)c2cc1NC(=O)CCCN(C)C` [Example 28], the half-inhibitory concentration (IC50) at MST1 [1] (setting [5]) and at MST2 (setting [6]) was < 100 nM each time.

`CCOc1cc2ncc(C#N)c(Nc3ccc(OCc4ncccc4C)c(Cl)c3)c2cc1NC(=O)CCCN(C)C` [Example 1]: the IC50 on MST1 [1] (setting [5]) and on MST2 (setting [6]) was < 100 nM throughout.

Turning to `CCOc1cc2ncc(C#N)c(Nc3ccc(OCc4ncccc4C)c(Cl)c3)c2cc1NC(=O)/C=C/CN(C)C` [Example 90, (E)-N-(4-(3-chloro-4-((3-methylpyridin-2-yl)methoxy)phenylamino)-3-cyano-7-ethoxyquinolin-6-yl)-4-(dimethylamino)but-2-enamide], the IC50 at MST1 [1] (setting [5]) and at MST2 (setting [6]) was < 100 nM each time.

Regarding `CCOc1cc2ncc(C#N)c(Nc3ccc(OCc4ncccc4CC)c(Cl)c3)c2cc1NC(=O)CCCN(C)C` [Example 45], the concentration for half-maximal inhibition (IC50) at MST1 [1] (setting [5]) and at MST2 (setting [6]) was < 100 nM each time.

Take `CCOc1cc2ncc(C#N)c(Nc3ccc(OCc4cn5cccc(C)c5n4)c(Cl)c3)c2cc1NC(=O)CCCN(C)C` [Example 41]: the IC50 at MST1 [1] (setting [5]) and on MST2 (setting [6]) was < 100 nM throughout.

`Cc1cccnc1COc1ccc(Nc2ccnc3ccc(NC(=O)CCCN(C)C)cc23)c(Cl)c1` [Example 147, N-(4-(2-chloro-4-((3-methylpyridin-2-yl)methoxy)phenylamino)quinolin-6-yl)-4-(dimethylamino)butanamide]: the IC50 on MST1 [1] (setting [5]) and at MST2 was 1000 to 10000 nM each time.

Take `CCOc1cc2ncc(C#N)c(Nc3ccc(OCc4nccn4CC)c(Cl)c3)c2cc1NC(=O)CCCN(C)C` [Example 38]: the IC50 on MST1 [1] (setting [5]) and at MST2 was 100 to 1000 nM each time.

Turning to `Cc1cccnc1COc1ccc(Nc2c(C#N)cnc3ccc(NC(=O)CCCN(C)C)cc23)c(Cl)c1` [Example 144, N-(4-(2-chloro-4-((3-methylpyridin-2-yl)methoxy)phenylamino)-3-cyanoquinolin-6-yl)-4-(dimethylamino)butanamide], the IC50 at MST1 [1] and on MST2 was 100 to 1000 nM in each case.

Regarding `CCOc1cc2ncc(C#N)c(Nc3cc(C)c(OCc4ncccc4C)cc3C)c2cc1NC(=O)/C=C/CN(C)C` [Example 94], the IC50 on MST1 [1] (setting [5]) and at MST2 (setting [6]) was < 100 nM in each case.

With `CCOc1cc2ncc(C#N)c(Nc3ccc(OCc4ccccn4)c(Cl)c3)c2cc1NC(=O)CCCN(C)C` [Example 8], the values for the half-inhibitory concentration (IC50) on MST1 [1] (setting [5]) and at MST2 were < 100 nM and 100 to 1000 nM, respectively.

For `CCOc1cc2ncc(C#N)c(Nc3ccc(OCc4ncccc4C)cc3F)c2cc1NC(=O)CCCN(C)C` [Example 23], the half-maximal inhibitory concentration (IC50) on MST1 [1] (setting [5]) and on MST2 (setting [6]) was < 100 nM each time.

As for `CCOc1cc2ncc(C#N)c(Nc3cc(C)c(OCc4ncccc4C)c(C)c3)c2cc1NC(=O)CCCN(C)C` [Example 32], the 50% inhibitory concentration (IC50) is < 100 nM on MST1 [1] (setting [5]) and 100 to 1000 nM at MST2.

Consider `CCOc1cc2ncc(C#N)c(Nc3ccc(OCc4ncccc4CO)cc3Cl)c2cc1NC(=O)CCCN(C)C` [Example 83], for which the IC50 on MST1 [1] (setting [5]) and on MST2 (setting [6]) was < 100 nM throughout.

In the case of `CCOc1cc2ncc(C#N)c(Nc3ccc(OCc4ncccc4C)cc3C)c2cc1NC(=O)CCCN(C)C` [Example 31], the IC50 on MST1 [1] (setting [5]) and on MST2 (setting [6]) was < 100 nM in each case.

As for `CCOc1cc2ncc(C#N)c(Nc3ccc(OCc4ncccc4C)cc3C#N)c2cc1NC(=O)CCCN(C)C` [Example 30], the IC50 was < 100 nM at MST1 [1] (setting [5]) and 100 to 1000 nM at MST2.

For the compound `CCOc1cc2ncc(C#N)c(Nc3ccc(OCc4cc(C)ccn4)c(Cl)c3)c2cc1NC(=O)CCCN(C)C` [Example 10], the IC50 on MST1 [1] (setting [5]) is < 100 nM; on MST2, 100 to 1000 nM.

Consider `CCOc1cc2ncc(C#N)c(Nc3ccc(OCc4cc(C#N)ccn4)c(Cl)c3)c2cc1NC(=O)CCCN(C)C` [Example 36], for which the IC50 at MST1 [1] (setting [5]) and at MST2 was 100 to 1000 nM in each case.

For the compound `CCOc1cc2ncc(C#N)c(Nc3ccc(OCc4cc(OC)ccn4)c(Cl)c3)c2cc1NC(=O)CCCN(C)C` [Example 37], the 50% inhibitory concentration (IC50) on MST1 [1] (setting [5]) was < 100 nM; on MST2, 100 to 1000 nM.

Consider `CCOc1cc2ncc(C#N)c(Nc3ccc(OCc4ncccc4C)c(C#N)c3)c2cc1NC(=O)CCCN(C)C` [Example 27], for which the results for the 50% inhibitory concentration (IC50) on MST1 [1] and on MST2 were 100 to 1000 nM and 1000 to 10000 nM, respectively.

As to `CCOc1cc2ncc(C#N)c(Nc3ccc(OCc4ccccn4)c(F)c3)c2cc1NC(=O)CCCN(C)C` [Example 9], the half-maximal inhibitory concentration (IC50) at MST1 [1] (setting [5]) and on MST2 was 100 to 1000 nM in each case.

For `CCOc1cc2ncc(C#N)c(Nc3ccc(OCc4ncccc4C)cc3Br)c2cc1NC(=O)CCCN(C)C` [Example 74], the half-inhibitory concentration (IC50) on MST1 [1] (setting [5]) and at MST2 (setting [6]) was < 100 nM each time.

Take `CCOc1cc2ncc(C#N)c(Nc3ccc(OCc4ncccc4OC)c(Cl)c3)c2cc1NC(=O)CCCN(C)C` [Example 18]: the half-inhibitory concentration (IC50) on MST1 [1] (setting [5]) is < 100 nM; on MST2 it was 100 to 1000 nM.

With `CCOc1cc2ncc(C#N)c(Nc3ccc(OCc4ccccn4)c(Cl)c3)c2cc1NC` [Example 140, 4-(3-chloro-4-(pyridin-2-ylmethoxy)phenylamino)-7-ethoxy-6-(methylamino)quinoline-3-carbonitrile], the figures for the IC50 at MST1 [1] and on MST2 were 100 to 1000 nM and 1000 to 10000 nM, respectively.

For `CCOc1cc2ncc(C#N)c(Nc3ccc(OCc4cccc(C)n4)c(Cl)c3)c2cc1NC(=O)CCCN(C)C` [Example 12], the half-inhibitory concentration (IC50) on MST1 [1] (setting [5]) and on MST2 (setting [6]) was < 100 nM in each case.

For `CCOc1cc2ncc(C#N)c(Nc3ccc(OCc4ccccn4)c(Cl)c3)c2cc1NC(=O)/C=C/CN(C)C` [neratinib], the Beta cell apoptosis result in the test with Beta cell is recorded as “decrease”. For the same compound, in the test with human islets [2] (10 μM neratinib), the “Caspase 3 cleavage” value is listed as “inhibited” and the MST1 phosphorylation entry is given as “inhibited”. Further, in the test with human islets [2] (25 μM neratinib), the “Caspase 3 cleavage” value was “inhibited” and the MST1 phosphorylation entry is reported as “inhibited”. Moreover, the MST1 kinase activity result on MST1 [3] is “inhibitor”. Besides, in the test with human islets [4] (25 M neratinib (so in the source)), the “induction of cleaved caspase 3 (Cl Casp3)” value is “inhibited”. In the test with human islets [4], the “MST1 phosphorylation (pMST1)” value is on record as “inhibited”. Also, the hyperglycemia entry with T1D model mice (T1D model mice treated with STZ, FIG. 4) is recorded as “attenuated”. In addition, in the test with T1D model mice (T1D model mice, FIG. 5), the “responses to acute glucose challenge” value is “improved”. The blood glucose result with T1D model mice (T1D model mice, FIG. 6) is reported as “reduced”. In addition, the serum insulin result in the test on T1D model mice (T1D model mice, FIG. 7) is “increased”.

Take `CCOc1cc2ncc(C#N)c(Nc3ccc(OCc4ncccc4C)c(OC)c3)c2cc1NC(=O)/C=C/CN(C)C` [Example 92]: the half-maximal inhibitory concentration (IC50) on MST1 [1] (setting [5]) and at MST2 (setting [6]) was < 100 nM each time.

On to `CCOc1cc2ncc(C#N)c(Nc3ccc(OCc4cccc(F)n4)c(Cl)c3)c2cc1NC(=O)CCCN(C)C` [Example 4], for which the IC50 on MST1 [1] (setting [5]) and on MST2 (setting [6]) was < 100 nM throughout.

Turning to `CCOc1cc2ncc(C#N)c(Nc3ccc(OCc4cc(C5CC5)on4)c(Cl)c3)c2cc1NC(=O)CCCN(C)C` [Example 40], the IC50 at MST1 [1] (setting [5]) and at MST2 was 100 to 1000 nM each time.

Take `CCOc1cc2ncc(C#N)c(Nc3cc(Cl)c(OCc4ncccc4C)cc3Cl)c2cc1NC(=O)CCCN(C)C` [Example 75]: the IC50 on MST1 [1] (setting [5]) and at MST2 (setting [6]) was < 100 nM each time.
